Data taken from patent US9000162B2, “5,8-difluoro-4-(2-(4-(heteroaryloxy)-phenyl)ethylamino)quinazolines and their use as agrochemicals” (Dow AgroSciences LLC, priority 2008, dated 2015).

How the values were obtained:
Format in all cases: in vivo
[1] = system: Pseudoperonospora cubensis (PSPECU); assay: Cucumber downy mildew foliar protectant test; conditions: 200 ppm foliar, inoculated one day after treatment, read-out: Activity against fungal diseases PSPECU
Procedure: The plants were inoculated with the fungus one day after treatment. ***=80-100% control; **=50-79% control; *=0-49% control. It will be understood by those in the art that the efficacy of the compounds against the foregoing fungi establishes the general utility of the compounds as fungicides. The activity of the compounds as effective fungicides was determined by applying the compounds to plants and observing control of fungal disease. […] All plants were inoculated with spores of the fungus the day after treatment, then incubated in an environment conducive to disease development. Disease severity was evaluated 4 to 25 days later, depending on the speed of disease development. The following experiments were performed in the laboratory to determine the fungicidal efficacy of the compounds of the invention. Cucumber Downy Mildew (Causal Agent Pseudoperonospora cubensis; Bayer Code […]): Cucumber plants (variety “Bush Champion' or 'Bush Pickle Hybrid') were grown from seed in a soil-less peat-based potting mixture (Metromix) until the first true leaf was 20-80% expanded. Each pot contained 1 seedling. These plants were sprayed until wet with the formulated test compound. On the following day, the leaves were inoculated with an aqueous suspension of downy mildew sporangia and the plants were kept in high humidity for one day to permit sporangia to germinate and infect the leaf. The plants were then incubated in a growth chamber until disease developed on untreated control plants. Table 1 presents the activity of typical compounds of the present invention when evaluated in these experiments. The effectiveness of the test compounds at controlling disease when sprayed on leaves was determined by assessing the severity of disease on treated plants, then converting the severity to percent control based on the level of disease on untreated, inoculated plants.

[2] = system: Magnaporthe grisea = Pyricularia oryzae (PYRIOR); assay: whole plant or invertebrate; conditions: foliar, read-out: Activity against fungal diseases PYRIOR
[3] = system: Septoria tritici (SEPTTR); assay: Septoria blotch of wheat foliar protectant test; conditions: Zymoseptoria tritici, read-out: Activity against fungal diseases SEPTTR; for pest or weed control at 200 ppm: 200 ppm foliar, inoculated one day after treatment; for pest or weed control at 25 ppm: foliar, Tested at 25 ppm (footnote b)
Procedure: (§1) The plants were inoculated with the fungus one day after treatment. ***=80-100% control; **=50-79% control; *=0-49% control. It will be understood by those in the art that the efficacy of the compounds against the foregoing fungi establishes the general utility of the compounds as fungicides. The activity of the compounds as effective fungicides was determined by applying the compounds to plants and observing control of fungal disease. […] All plants were inoculated with spores of the fungus the day after treatment, then incubated in an environment conducive to disease development. Disease severity was evaluated 4 to 25 days later, depending on the speed of disease development. The following experiments were performed in the laboratory to determine the fungicidal efficacy of the compounds of the invention. […] Each pot contained 3-10 seedlings. These plants were sprayed until wet with the formulated test compound. On the following day, the leaves were inoculated with an aqueous spore suspension of Septoria tritici and the plants were kept in high humidity (one day in a dark dew chamber followed by three days in a lighted dew chamber) to permit spores to germinate and infect the leaf. The plants were then transferred to a greenhouse until disease developed on untreated control plants. Table 1 presents the activity of typical compounds of the present invention when evaluated in these experiments. The effectiveness of the test compounds at controlling disease when sprayed on leaves was determined by assessing the severity of disease on treated plants, then converting the severity to percent control based on the level of disease on untreated, inoculated plants.

[4] = system: Puccinia recondita tritici (PUCCRT); assay: Leaf rust of wheat foliar protectant test; conditions: 200 ppm foliar, inoculated one day after treatment, read-out: Activity against fungal diseases PUCCRT
Procedure: as §1, with “3-8” for “3-10”, “compounds.” for “compound.”, “Puccinia recondita” for “Septoria”, “overnight” for “(one day in a dark dew chamber followed by three days in a lighted dew chamber)”

Compound | pest or weed control at 200 ppm [1] | pest or weed control at 200 ppm [2] | pest or weed control at 200 ppm [3] | pest or weed control at 200 ppm [4] | pest or weed control at 25 ppm [3]
COc1cc(CCNc2ncnc3c(F)ccc(F)c23)ccc1Oc1ccnc(Cl)c1 [Compound 108] | 0 to 49% | 0 to 49% | 80 to 100% | 80 to 100% | –
Fc1ccc(F)c2c(NC3Cc4ccc(Oc5cc(C(F)(F)F)ccn5)cc4C3)ncnc12 (stereo not shown) [Compound 110] | 80 to 100% | 80 to 100% | 80 to 100% | 80 to 100% | –
COc1cc(CCNc2ncnc3c(F)ccc(F)c23)ccc1Oc1cc(C(F)(F)F)cc(C)n1 [Compound 44] | 80 to 100% | 0 to 49% | 80 to 100% | 80 to 100% | –
COc1cc(CCNc2ncnc3c(F)ccc(F)c23)ccc1Oc1c(F)cnc(C(F)(F)F)c1F [Compound 50] | 80 to 100% | 80 to 100% | 80 to 100% | 80 to 100% | –
Oc1ccc2c(c1)CC(Nc1ncnc3c(F)ccc(F)c13)C2 (stereo not shown) [Compound 106] | 50 to 79% | 50 to 79% | 0 to 49% | 50 to 79% | –
COc1cc(CCNc2ncnc3c(F)ccc(F)c23)ccc1Oc1c(Cl)cnc(C(F)(F)F)c1Cl [Compound 69] | 80 to 100% | 80 to 100% | 80 to 100% | 80 to 100% | –
Fc1ccc(F)c2c(NC3Cc4ccc(Oc5ccc(C(F)(F)F)cn5)cc4C3)ncnc12 (stereo not shown) [Compound 111] | 80 to 100% | 80 to 100% | 80 to 100% | 80 to 100% | –
Fc1cc(C(F)(F)F)cnc1Oc1ccc(CCNc2ncnc3c(F)ccc(F)c23)cc1 [Compound 5] | 80 to 100% | 80 to 100% | – | 80 to 100% | 80 to 100%
COc1ccc(CCNc2ncnc3c(F)ccc(F)c23)cc1Br [Compound 32] | 80 to 100% | 50 to 79% | 0 to 49% | 80 to 100% | –
Fc1nc(C(F)(F)F)nc(Oc2ccc(CCNc3ncnc4c(F)ccc(F)c34)cc2)c1F [Compound 100] | 80 to 100% | 0 to 49% | 0 to 49% | 0 to 49% | –
Cc1cc(Oc2cc(C(F)(F)F)ccn2)c(C)cc1CCNc1ncnc2c(F)ccc(F)c12 [Compound 19] | 80 to 100% | 80 to 100% | 80 to 100% | 80 to 100% | –
Cc1c(O)ccc(CCNc2ncnc3c(F)ccc(F)c23)c1C [Compound 23] | 80 to 100% | 50 to 79% | 0 to 49% | 50 to 79% | –
COc1cc(CCNc2ncnc3c(F)ccc(F)c23)ccc1Oc1ccnc(C(F)(F)F)c1Cl [Compound 78] | 80 to 100% | 80 to 100% | 80 to 100% | 80 to 100% | –
COC(=O)c1cnc(Oc2ccc(CCNc3ncnc4c(F)ccc(F)c34)cc2)cc1C(F)(F)F [Compound 28] | 80 to 100% | 80 to 100% | – | 80 to 100% | 80 to 100%
COc1ccc(CCNc2ncnc3c(F)ccc(F)c23)cc1Cl [Compound 85] | 80 to 100% | 50 to 79% | 0 to 49% | 0 to 49% | –
N#Cc1cc(CCNc2ncnc3c(F)ccc(F)c23)ccc1Oc1cc(C(F)(F)F)ccn1 [Compound 41] | 80 to 100% | 80 to 100% | – | 80 to 100% | 50 to 79%
COc1cc(CCNc2ncnc3c(F)ccc(F)c23)ccc1Oc1ncc(C(F)(F)F)cc1F [Compound 45] | 80 to 100% | 0 to 49% | 80 to 100% | 80 to 100% | –
Fc1ccc(F)c2c(NCCc3ccc(Oc4ccnc(C(F)(F)F)n4)cc3)ncnc12 [Compound 114] | 80 to 100% | 80 to 100% | – | 80 to 100% | 50 to 79%
Fc1ccc(F)c2c(NCCc3ccc(Oc4c(Cl)cnc(C(F)(F)F)c4Cl)cc3)ncnc12 [Compound 95] | 80 to 100% | 80 to 100% | 80 to 100% | 80 to 100% | –
Cc1cc(O)ccc1CCNc1ncnc2c(F)ccc(F)c12 [Compound 51] | 0 to 49% | 50 to 79% | 0 to 49% | 0 to 49% | –
Cc1cc(CCNc2ncnc3c(F)ccc(F)c23)ccc1Oc1cc(C(F)(F)F)cc[n+]1[O-] [Compound 61] | 80 to 100% | 50 to 79% | 80 to 100% | 80 to 100% | –
COc1cc(CCNc2ncnc3c(F)ccc(F)c23)ccc1Oc1cc(C(F)(F)F)cc[n+]1[O-] [Compound 59] | 80 to 100% | 80 to 100% | 80 to 100% | 80 to 100% | –
Cc1cc(Oc2cc(C(F)(F)F)ncn2)ccc1CCNc1ncnc2c(F)ccc(F)c12 [Compound 118] | 80 to 100% | 80 to 100% | – | 80 to 100% | 80 to 100%
CCOc1cc(CCNc2ncnc3c(F)ccc(F)c23)ccc1Oc1cc(C(F)(F)F)ccn1 [Compound 60] | 80 to 100% | 80 to 100% | 80 to 100% | 80 to 100% | –
Cc1cc(CCNc2ncnc3c(F)ccc(F)c23)ccc1Oc1ccnc(C(F)(F)F)c1 [Compound 82] | 80 to 100% | 80 to 100% | 80 to 100% | 80 to 100% | –
COc1ccc(CCNc2ncnc3c(F)cc(F)c(F)c23)cc1Cl [Compound 86] | 80 to 100% | 0 to 49% | 0 to 49% | 0 to 49% | –
Fc1ccc(F)c2c(NCCc3cccc(Oc4cc(C(F)(F)F)ccn4)c3)ncnc12 [Compound 40] | 80 to 100% | 80 to 100% | – | 80 to 100% | 50 to 79%
Fc1cnc(C(F)(F)F)c(F)c1Oc1ccc(CCNc2ncnc3c(F)ccc(F)c23)cc1 [Compound 48] | 80 to 100% | 80 to 100% | 80 to 100% | 80 to 100% | –
